Tested on: HCV replicon (Renilla luciferase) in HUH-7 cells
Test: HCV replicon luciferase reporter assay
Assay type: cell-based, HCV strain 1b
Details: Huh-7, 96 h, 4 days
Source text: An HCV replicon whole cell system was established as described by Lohmann V, Korner F, Koch J, Herian U, Theilmann L, Bartenschlager R., Science 285(5424):110-3 (1999). This system enabled us to evaluate the effects of our HCV Protease compounds on HCV RNA replication. Briefly, using the HCV strain 1b sequence described in the Lohmann paper (Assession number: AJ238799), an HCV cDNA was synthesized by Operon Technologies, Inc. (Alameda, Calif.), and the full-length replicon was then assembled in plasmid pGem9zf(+) (Promega, Madison, Wis.) using standard molecular biology techniques. […]
As a secondary assay, EC50 determinations from the replicon FRET assay were confirmed in a replicon luciferase reporter assay. […] Following 4 days in a 37° C./5% CO2 incubator, cells were analyzed for Renilla Luciferase activity using the Promega Dual-Glo Luciferase Assay System. […] Plates were read on a Packard TopCount NXT using a luminescence program.
The percentage inhibition was calculated using the formula below: % control=average luciferase signal in experimental wells (+compound)
average luciferase signal in DMSO control wells (−compound) The values were graphed and analyzed using XLfit to obtain the EC50 value.

## COc1c(O[C@@H]2C[C@H]3C(=O)N[C@]4(C(=O)NS(=O)(=O)C5CC5)C[C@H]4/C=C\CCCCC[C@H](NC(=O)OC(C)(C)C)C(=O)N3C2)ccc2c(Cl)nccc12 [Compound 3]
  EC50: 5.5 nM

From patent US7741281B2, “Hepatitis C virus inhibitors” (Bristol-Myers Squibb Company, priority 2005, dated 2010)
